# Laboratory results published in patent publication US10738028B2, “Spiro three-membered ring, spiro five-membered ring peptide deformylase inhibitor and use thereof in antibacteria and anti-tumor” (priority 2016, dated 2020).
# Tests used:
# Format in all cases: cell-based
# [1] = test system: Enterococcus faecalis (EFA); experiment: MIC, two-fold agar dilution (CLSI), clinical isolates
# Method in brief: (§1)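 MIC values come from two-fold agar dilution run per CLSI antimicrobial susceptibility testing procedure.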
# [2] = test system: Enterococcus faecium (EFM); experiment: as above
# Method in brief: as §1
# [3] = test system: Escherichia coli (including ESBLs, non-ESBLs); experiment: as above
# Method in brief: as §1
# [4] = test system: Moraxella catarrhalis (BCA); experiment: as above
# Method in brief: as §1
# [5] = test system: Streptococcus pneoumoniae (SPN); experiment: as above
# Method in brief: as §1
# [6] = test system: methicillin-resistant Staphylococcus aureus (MRSA); experiment: as above
# Method in brief: as §1
# [7] = test system: methicillin-resistant Staphylococcus epidermidis (MRSE); experiment: as above
# Method in brief: as §1
# [8] = test system: methicillin-sensitive Staphylococcus aureus (MSSA); experiment: as above
# Method in brief: as §1
# [9] = test system: methicillin-sensitive Staphylococcus epidermidis (MSSE); experiment: as above
# Method in brief: as §1
# [10] = test system: HCT-116 colorectal cancer cell line; experiment: CCK-8 proliferation inhibition; conditions: concentration of 30 μM, 72 hours, CCK-8; for HCT116 inhibition rate/%: 30 µM
# Method in brief: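 Cells were plated overnight at 2000 cells/well, then compound in culture medium was added at a range of final concentrations. After 72 hours in a CO2 incubator, medium was replaced with 1:10 CCK-8 solution for the read-out.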
# [11] = test system: A549 lung cancer cell line; experiment: CCK-8 proliferation inhibition; conditions: concentration of 30 μM; for inhibition at 30 µM: Homo sapiens, A549, 72 h; for Inhibition of proliferation, Lung cancer A549: 72 hours, 30 µM
# Method in brief: (§2)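 Plating at 2000 cells/well, then incubation overnight at 37° C. Next, a range of compound concentrations for 72 hours (control 1‰ DMSO). Finally, medium decanted and CCK-8 diluted 1:10 added.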
# [12] = test system: BEL-7402 liver cancer cell line; experiment: CCK-8 proliferation inhibition; conditions: concentration of 30 μM; for Inhibition of proliferation, Liver cancer BEL-7402: 72 hours, 30 µM
# Method in brief: as §2
# [13] = test system: MGC-803 gastric cancer cell line; experiment: CCK-8 proliferation inhibition; conditions: concentration of 30 μM; for inhibition at 30 µM: Homo sapiens, MGC-803, 72 h
# Method in brief: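 Proliferation was measured with 1:10 diluted CCK-8 after a 72-hour incubation with the inhibitors at various final concentrations, using 1‰ DMSO as the control. Cells were plated at 2000 per well. Culture media contained 10% newborn bovine serum: 1640 for Jurkat and MGC-803, F12 for PC3, DMEM high glucose for MCF-7.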
smiles,measurement,setting,value
"CCCC[C@H](CC(=O)NO)C(=O)N1CC2(CCCC2)C[C@H]1C(=O)Nc1ccc(F)cn1 [Example 78, (S)—N-(5-fluoropyridin-2-yl)-2-((R)-2-(2-(hydroxyamino)-2-oxoethyl)hexanoyl)-2-spiro[4.4]nonane-3-carboxamide]",Anti-bacterial activity (MIC),[1]; strain EFA 15-1,> 32 µg/mL
same,Anti-bacterial activity (MIC),[1]; strain EFA 15-2,> 32 µg/mL
same,Anti-bacterial activity (MIC),[1]; strain EFA 15-3,> 32 µg/mL
same,Anti-bacterial activity (MIC),[1]; strain EFA 15-4,> 32 µg/mL
same,Anti-bacterial activity (MIC),[1]; strain EFA 15-5,> 32 µg/mL
same,Anti-bacterial activity (MIC),[1]; strain EFA 15-6,> 32 µg/mL
same,Anti-bacterial activity (MIC),[1]; strain EFA 15-9,> 32 µg/mL
same,Anti-bacterial activity (MIC),[2]; strain EFM 15-1,> 32 µg/mL
same,Anti-bacterial activity (MIC),[2]; strain EFM 15-2,> 32 µg/mL
same,Anti-bacterial activity (MIC),[2]; strain EFM 15-3,> 32 µg/mL
same,Anti-bacterial activity (MIC),[2]; strain EFM 15-4,2 µg/mL
same,Anti-bacterial activity (MIC),[2]; strain EFM 15-5,0.25 µg/mL
same,Anti-bacterial activity (MIC),[2]; strain EFM 15-6,1 µg/mL
same,"Anti-bacterial activity (MIC), strain ECO+ 15-1",[3]; clinical isolate ECO+ 15-1,16 µg/mL
same,"Anti-bacterial activity (MIC), strain ECO+ 15-2",[3]; clinical isolate ECO+ 15-2,> 32 µg/mL
same,"Anti-bacterial activity (MIC), strain ECO+ 15-3",[3]; clinical isolate ECO+ 15-3,> 32 µg/mL
same,"Anti-bacterial activity (MIC), strain ECO+ 15-4",[3]; clinical isolate ECO+ 15-4,> 32 µg/mL
same,"Anti-bacterial activity (MIC), strain ECO− 15-1",[3]; clinical isolate ECO− 15-1,> 32 µg/mL
same,"Anti-bacterial activity (MIC), strain ECO− 15-2",[3]; clinical isolate ECO− 15-2,> 32 µg/mL
same,"Anti-bacterial activity (MIC), strain ECO− 15-3",[3]; clinical isolate ECO− 15-3,> 32 µg/mL
same,"Anti-bacterial activity (MIC), strain ECO− 15-4",[3]; clinical isolate ECO− 15-4,> 32 µg/mL
same,Anti-bacterial activity (MIC),[4]; strain BCA 14-1,0.5 µg/mL
same,Anti-bacterial activity (MIC),[4]; strain BCA 14-4,1 µg/mL
same,Anti-bacterial activity (MIC),[4]; strain BCA 14-5,1 µg/mL
same,Anti-bacterial activity (MIC),[4]; strain BCA 14-6,0.5 µg/mL
same,Anti-bacterial activity (MIC),[4]; strain BCA 14-7,0.5 µg/mL
same,Anti-bacterial activity (MIC),[4]; strain BCA 14-8,0.25 µg/mL
same,Anti-bacterial activity (MIC),[4]; strain BCA 14-10,0.25 µg/mL
same,Anti-bacterial activity (MIC),[5]; strain SPN 16-2,0.03 µg/mL
same,Anti-bacterial activity (MIC),[5]; strain SPN 16-4,0.25 µg/mL
same,"Anti-bacterial activity (MIC), strain MRSA 15-1",[6]; clinical isolate MRSA 15-1,0.06 µg/mL
same,"Anti-bacterial activity (MIC), strain MRSA 15-2",[6]; clinical isolate MRSA 15-2,0.5 µg/mL
same,"Anti-bacterial activity (MIC), strain MRSA 15-3",[6]; clinical isolate MRSA 15-3,0.125 µg/mL
same,"Anti-bacterial activity (MIC), strain MRSA 15-4",[6]; clinical isolate MRSA 15-4,0.5 µg/mL
same,"Anti-bacterial activity (MIC), strain MRSE 15-1",[7]; clinical isolate MRSE 15-1,0.125 µg/mL
same,"Anti-bacterial activity (MIC), strain MRSE 15-2",[7]; clinical isolate MRSE 15-2,1 µg/mL
same,"Anti-bacterial activity (MIC), strain MRSE 15-3",[7]; clinical isolate MRSE 15-3,1 µg/mL
same,"Anti-bacterial activity (MIC), strain MRSE 15-7",[7]; clinical isolate MRSE 15-7,1 µg/mL
same,"Anti-bacterial activity (MIC), strain MSSA 15-3",[8]; clinical isolate MSSA 15-3,0.5 µg/mL
same,"Anti-bacterial activity (MIC), strain MSSA 15-4",[8]; clinical isolate MSSA 15-4,0.125 µg/mL
same,"Anti-bacterial activity (MIC), strain MSSA 15-5",[8]; clinical isolate MSSA 15-5,0.03 µg/mL
same,"Anti-bacterial activity (MIC), strain MSSA 15-6",[8]; clinical isolate MSSA 15-6,> 32 µg/mL
same,"Anti-bacterial activity (MIC), strain MSSE 15-3",[9]; clinical isolate MSSE 15-3,0.25 µg/mL
same,"Anti-bacterial activity (MIC), strain MSSE 15-4",[9]; clinical isolate MSSE 15-4,0.25 µg/mL
same,"Anti-bacterial activity (MIC), strain MSSE 15-5",[9]; clinical isolate MSSE 15-5,0.25 µg/mL
same,"Anti-bacterial activity (MIC), strain MSSE 15-6",[9]; clinical isolate MSSE 15-6,0.03 µg/mL
same,inhibition at 30 µM,"[10]; Homo sapiens, HCT-116, 72 h, read-out: HCT116 inhibition rate/%",> 50%
same,HCT116 inhibition rate/%,[10],52%
same,inhibition at 30 µM,[11],> 50%
same,"Inhibition of proliferation, Lung cancer A549",[11],54%
same,inhibition at 30 µM,"[12]; Homo sapiens, Bel-7402, 72 h",> 50%
same,"Inhibition of proliferation, Liver cancer BEL-7402",[12],67%
same,inhibition at 30 µM,[13],44%
"CCCC[C@H](CC(=O)NO)C(=O)N1CC2(CCCC2)C[C@H]1C(=O)Nc1ncc(C)s1 [Example 79, (S)-2-((R)-2-(2-(hydroxyamino)-2-oxoethyl)hexanoyl)-N-(5-methylthiazol-2-yl)-2-azaspiro[4.4]nonane-3-amide]",Anti-bacterial activity (MIC),[1]; strain EFA 15-1,32 µg/mL
same,Anti-bacterial activity (MIC),[1]; strain EFA 15-2,32 µg/mL
same,Anti-bacterial activity (MIC),[1]; strain EFA 15-3,32 µg/mL
same,Anti-bacterial activity (MIC),[1]; strain EFA 15-4,32 µg/mL
same,Anti-bacterial activity (MIC),[1]; strain EFA 15-5,32 µg/mL
same,Anti-bacterial activity (MIC),[1]; strain EFA 15-6,32 µg/mL
same,Anti-bacterial activity (MIC),[1]; strain EFA 15-9,32 µg/mL
same,Anti-bacterial activity (MIC),[2]; strain EFM 15-1,32 µg/mL
same,Anti-bacterial activity (MIC),[2]; strain EFM 15-2,32 µg/mL
same,Anti-bacterial activity (MIC),[2]; strain EFM 15-3,32 µg/mL
same,Anti-bacterial activity (MIC),[2]; strain EFM 15-4,1 µg/mL
same,Anti-bacterial activity (MIC),[2]; strain EFM 15-5,1 µg/mL
same,Anti-bacterial activity (MIC),[2]; strain EFM 15-6,1 µg/mL
same,Anti-bacterial activity (MIC),[3]; strain ECO+ 15-1,32 µg/mL
same,Anti-bacterial activity (MIC),[3]; strain ECO+ 15-2,> 32 µg/mL
same,Anti-bacterial activity (MIC),[3]; strain ECO+ 15-3,> 32 µg/mL
same,Anti-bacterial activity (MIC),[3]; strain ECO+ 15-4,> 32 µg/mL
same,Anti-bacterial activity (MIC),[3]; strain ECO− 15-1,> 32 µg/mL
same,Anti-bacterial activity (MIC),[3]; strain ECO− 15-2,> 32 µg/mL
same,Anti-bacterial activity (MIC),[3]; strain ECO− 15-3,> 32 µg/mL
same,Anti-bacterial activity (MIC),[3]; strain ECO− 15-4,> 32 µg/mL
same,Anti-bacterial activity (MIC),[4]; strain BCA 14-1,0.25 µg/mL
same,Anti-bacterial activity (MIC),[4]; strain BCA 14-4,1 µg/mL
same,Anti-bacterial activity (MIC),[4]; strain BCA 14-5,0.25 µg/mL
same,Anti-bacterial activity (MIC),[4]; strain BCA 14-6,1 µg/mL
same,Anti-bacterial activity (MIC),[4]; strain BCA 14-7,0.5 µg/mL
same,Anti-bacterial activity (MIC),[4]; strain BCA 14-8,0.5 µg/mL
same,Anti-bacterial activity (MIC),[4]; strain BCA 14-10,0.25 µg/mL
same,Anti-bacterial activity (MIC),[5]; strain SPN 16-2,0.06 µg/mL
same,Anti-bacterial activity (MIC),[5]; strain SPN 16-4,0.25 µg/mL
same,Anti-bacterial activity (MIC),[6]; strain MRSA 15-1,0.25 µg/mL
same,Anti-bacterial activity (MIC),[6]; strain MRSA 15-2,0.25 µg/mL
same,Anti-bacterial activity (MIC),[6]; strain MRSA 15-3,0.125 µg/mL
same,Anti-bacterial activity (MIC),[6]; strain MRSA 15-4,0.25 µg/mL
same,Anti-bacterial activity (MIC),[7]; strain MRSE 15-1,0.25 µg/mL
same,Anti-bacterial activity (MIC),[7]; strain MRSE 15-2,2 µg/mL
same,Anti-bacterial activity (MIC),[7]; strain MRSE 15-3,2 µg/mL
same,Anti-bacterial activity (MIC),[7]; strain MRSE 15-7,2 µg/mL
same,Anti-bacterial activity (MIC),[8]; strain MSSA 15-3,0.5 µg/mL
same,Anti-bacterial activity (MIC),[8]; strain MSSA 15-4,0.125 µg/mL
same,Anti-bacterial activity (MIC),[8]; strain MSSA 15-5,0.125 µg/mL
same,Anti-bacterial activity (MIC),[8]; strain MSSA 15-6,> 32 µg/mL
same,Anti-bacterial activity (MIC),[9]; strain MSSE 15-3,0.25 µg/mL
same,Anti-bacterial activity (MIC),[9]; strain MSSE 15-4,1 µg/mL
same,Anti-bacterial activity (MIC),[9]; strain MSSE 15-5,1 µg/mL
same,Anti-bacterial activity (MIC),[9]; strain MSSE 15-6,0.03 µg/mL
same,HCT116 inhibition rate/%,[10],75%
same,inhibition at 30 µM,[11],> 50%
same,"Inhibition of proliferation, Lung cancer A549",[11],50%
same,"Inhibition of proliferation, Liver cancer BEL-7402",[12],77%
same,inhibition at 30 µM,[13],> 50%
same,"Inhibition of proliferation, Gastric cancer MGC-803","[13]; 72 hours, 30 µM",54%
